The first data set has as its target recombinant human BACE-1 protein (Homo sapiens (Human), UniProt P56817). Kind of data set: Measurement of inhibition of β-secretase activity (fluorescence-quenched peptide substrate, time-resolved fluorescence). In kind it is biochemical. The following applies: recombinant human BACE-1 7.4 nM, substrate peptide 18 nM, pH 5.0, 3 h at 30° C.; same test as table 170. The procedure: Zero point five μL of the test compounds (dissolved in N,N′-dimethylsulfoxide) were incubated with 48.5 μL of the fluorescence-quenched peptide substrate solution (Biotin-XSEVNLDAEFRHDSGC-Eu: X=εe-amino-n-capronic acid,Eu=Europium cryptate) and 1 μL of recombinant human BACE-1 protein (R&D systems) for 3 h at 30° C. in the 96 well half-area plate (black color plate,Costar). The substrate peptide was synthesized by reacting with Biotin-XSEVNLDAEFRHDSGC (Peptide Institute) and Cryptate TBPCOOH mono SMP (CIS bio international). […] The enzymatic reaction was performed in sodium acetate buffer (50 mM sodium acetate (pH 5.0), 0.008% Triton X-100). After the reaction, a 50 μL of 8.0 μg/mL Streptavidin-XL665 (CIS bio international) dissolved in phosphate buffer (150 mM K2HPO4—KH2PO4 (pH 7.0), 0.008% Triton X-100, 0.8 M KF) was add to each well and incubated for 1 h at 30° C.
recombinant human BACE-1 protein, sequence (P56817 46-501): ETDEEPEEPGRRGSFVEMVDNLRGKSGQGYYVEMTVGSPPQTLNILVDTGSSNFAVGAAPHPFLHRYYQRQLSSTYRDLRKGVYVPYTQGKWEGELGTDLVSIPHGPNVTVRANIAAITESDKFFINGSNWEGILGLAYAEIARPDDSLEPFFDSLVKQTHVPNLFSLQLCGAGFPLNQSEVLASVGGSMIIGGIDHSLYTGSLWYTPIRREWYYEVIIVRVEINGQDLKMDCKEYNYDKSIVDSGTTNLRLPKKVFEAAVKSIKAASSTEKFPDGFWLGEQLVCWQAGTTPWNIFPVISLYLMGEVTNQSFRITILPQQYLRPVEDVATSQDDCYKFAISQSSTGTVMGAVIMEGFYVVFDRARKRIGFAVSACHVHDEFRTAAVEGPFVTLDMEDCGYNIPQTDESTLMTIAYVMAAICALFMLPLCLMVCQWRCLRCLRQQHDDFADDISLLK
Usually IC50 stands for the concentration needed to halve the response being measured. `CC1(c2cc(NC(=O)c3ccc(Cl)cc3)cc(S(C)(=O)=O)c2)CCSC(N)=N1` (stereo not drawn) [Compound 30]: the IC50 was less than 100 µM.
On to `CC1(c2cccc(NC(=O)/C=C/c3cccc(F)c3)c2)CCSC(N)=N1` (stereo not drawn) [Compound 36], for which the IC50 is less than 100 µM.
Same read-out and setting: to `CC1(c2cc(NC(=O)c3ccc(Br)cc3)cc(S(C)(=O)=O)c2)CCSC(N)=N1` (stereo not drawn) [Compound 71] belongs less than 100 µM; to `CC1(c2cccc(CCC(=O)Nc3ccccc3)c2)CCSC(N)=N1` (stereo not drawn) [Compound 732], less than 100 µM.
On the same count and under the same terms, to `CC1(c2cccc(NC(=O)c3ncc(Br)cn3)c2)CCSC(N)=N1` (stereo not drawn) [Compound 900] belongs less than 100 µM; to `CC1(c2cccc(NC(=O)c3ccnnc3)c2)CCSC(N)=N1` (stereo not drawn) [Compound 1274], less than 100 µM.

System in a further data set: not given
Assay: not given
Conditions: not given
Usually melting point stands for the temperature of the solid-liquid transition. On to `CC1(c2ccccc2)CCOC(N)=N1.Cl` (stereo not drawn), for which the melting point fell in the range of 194 to 195 °C.
The same measure, in the same setting: the value for `CC1(c2cccc(NC(=O)c3ccc(C4CC4)cn3)c2)CCSC(N)=N1` (stereo not drawn) [Compound 738] was 181 to 183 °C.
Same read-out and setting: the value for `CC1(c2cccc(NC(=O)c3ncc(Br)cn3)c2)CCSC(N)=N1` (stereo not drawn) [Compound 900] was 205 to 207 °C.
